From patent publication US20130109721A1, “FAAH Inhibitors” (Ironwood Pharmaceuticals, Inc., priority 2009, published 2013)

Biological target: T1, FAAH (Homo sapiens, UniProt O00519)
T1 construct: FAAH activity was assayed in the respective homogenates described herein (Rat brain, Mouse brain or Human brain); tissue Analytical Biological Services (ABS), Inc; host or cells: human brain cortex membrane homogenate
T1 sequence (O00519 1-579): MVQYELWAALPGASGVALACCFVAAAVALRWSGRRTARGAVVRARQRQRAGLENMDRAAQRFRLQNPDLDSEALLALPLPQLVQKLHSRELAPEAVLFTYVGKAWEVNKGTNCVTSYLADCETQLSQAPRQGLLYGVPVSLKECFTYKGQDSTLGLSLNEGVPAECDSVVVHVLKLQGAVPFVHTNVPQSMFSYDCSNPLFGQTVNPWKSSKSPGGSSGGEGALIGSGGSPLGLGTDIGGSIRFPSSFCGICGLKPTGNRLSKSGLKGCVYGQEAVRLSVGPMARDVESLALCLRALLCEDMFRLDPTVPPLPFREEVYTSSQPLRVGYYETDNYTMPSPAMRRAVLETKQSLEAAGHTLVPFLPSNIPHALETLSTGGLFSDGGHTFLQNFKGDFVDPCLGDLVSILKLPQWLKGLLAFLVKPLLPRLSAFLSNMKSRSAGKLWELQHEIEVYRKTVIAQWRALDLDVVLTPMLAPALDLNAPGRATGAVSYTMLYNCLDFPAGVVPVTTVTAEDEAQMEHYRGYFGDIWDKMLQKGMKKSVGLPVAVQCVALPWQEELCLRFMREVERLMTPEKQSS
Test: FAAH inhibition, human brain membrane homogenate assay
Type: biochemical
Conditions: average; FAAH extracted from human brain homogenate; read-out: Human brain FAAH Extract IC50
Description: About 10 g of frozen normal human brain cortex tissue was obtained (e.g., from Analytical Biological Services (ABS), Inc. (Wilmington, Del.)). The brain tissue was thawed and transferred to a large ceramic mortar on ice. 50 mL of ice-cold “homogenization buffer” (20 mM HEPES buffer, pH 7.0, with 1 mM MgCl2) was added to the mortar and the tissue was homogenized with a pestle. The homogenate was centrifuged at 36,500 g for 20 minutes at 4° C. The supernatants were discarded and the pellets were re-suspended in homogenization buffer and centrifuged as before. The supernatants were again discarded and the pellets were re-suspended in 30 mL homogenization buffer and incubated in a 37° C. water bath for 20 minutes. The homogenate was then centrifuged as before. The supernatant was discarded and the membrane pellets were re-suspended in 30 mL “resuspension buffer” (50 mM Tris-HCl buffer, pH 7.4, containing 1 mM EDTA and 3 mM MgCl2). A Bradford Protein assay was performed to determine protein concentration. The protein was aliquotted into screw cap Cryo tubes each containing ˜200 μL, flash frozen in liquid nitrogen and stored at −80° C. until used for the assay.
FAAH activity was assayed in the respective homogenates described herein (Rat brain, Mouse brain or Human brain) for certain exemplary substrate compounds using a modification of the method of Omeir et al. (1995 Life Sci 56:1999) and Fowler et al. (1997 J. Pharmacol Exp Ther 283:729). For assay of FAAH activity in rat brain membrane (RBM) homogenates, RBM homogenates (7 μg protein in 20 μL final volume of 10 mM Tris pH 6.5) were mixed with 180 μL of a mixture of the following: 2.0 μM unlabelled anandamide, 0.03 μCi radio labeled anandamide [ethanolamine 1-^3H] (40-60 Cis/mmol, product number ART-626, American Radiolabeled Chemicals, St. Louis, Mo.), 1 mg/mL Bovine Serum Albumin (fatty acid-free BSA, electrophoresis grade, Sigma, St. Louis, Mo.), 10 mM Tris-HCl (pH 6.5), and 1 mM EDTA in the presence and absence of test compounds (vehicle was DMSO at a final concentration of 1%) and incubated for 10 minutes at 37° C. Samples were placed on ice to terminate the reactions.
^3H-ethanolamine product and un-reacted ^3H-anandamide substrate were then separated either: (1) by using chloroform/methanol extraction or (2) by passing the reaction mixture through a glass fiber filter containing activated charcoal. Samples were extracted with chloroform/methanol by adding 0.4 mL of chloroform/methanol (1:1 v/v), vigorously mixing the samples, and separating the aqueous and organic phases by centrifugation. Radioactivity (corresponding to FAAH-catalyzed breakdown of ^3H-anandamide) found in aliquots (0.2 mL) of the aqueous phase was determined by liquid scintillation counting with quench correction. IC50 values were determined as described by Jonsson et al. (2001 Br. J. Pharmacol. 133:1263). Alternatively, reactions were purified using a modification of the solid-phase extraction method described by Wilson et al (2003 Anal. Biochem. 318:270). This method was modified as follows: after reactions were incubated at 37° C. for 10 minutes and chilled on ice, the reaction mixtures were acidified by adding 10 μL of sodium phosphate solution [0.5M (pH 2.0)]. Next, 90 μL aliquots of the acidified reaction mixtures were applied to activated charcoal (that had been previously washed with methanol as described by Wilson et al. (supra)) containing 80 μL of water on top of a glass fiber filter, centrifuged, and the radioactivity in the eluate was counted as described previously by Wilson et al. (supra).
Table 1 provides activity data for certain compounds tested for inhibition of FAAH using the FAAH rat, mouse and human brain homogenate assays. […]

| IC50 | Compound |
| --- | --- |
| 1500 nM | Cc1c(C(=O)C(=O)Nc2cccc(Cl)c2)c2sccc2n1Cc1ccc(Cl)cc1 [Compound I-06, 2-(4-(4-chlorobenzyl)-5-methyl-4H-thieno[3,2-b]pyrrol-6-yl)-N-(3-chlorophenyl)-2-oxoacetamide] |
| 4 nM | COc1cc(NC(=O)C(=O)c2c(C)n(Cc3ccc(Cl)cc3)c3cc(C)sc23)ccn1 [Compound I-05, 2-(4-(4-chlorobenzyl)-2,5-dimethyl-4H-thieno[3,2-b]pyrrol-6-yl)-N-(2-methoxypyridin-4-yl)-2-oxoacetamide] |
| > 50000 nM | COc1cc(NC(=O)C(=O)c2cc(-c3ccccc3)n(Cc3ccc(Cl)cc3)c2C)ccn1 [Compound I-27, 2-(1-(4-chlorobenzyl)-2-methyl-5-phenyl-1H-pyrrol-3-yl)-N-(2-methoxypyridin-4-yl)-2-oxoacetamide] |
| 1220 nM | COc1cc(NC(=O)C(=O)c2cc(C)n(Cc3ccc(F)cc3)c2C)ccn1 [Compound I-17, 2-(1-(4-fluorobenzyl)-2,5-dimethyl-1H-pyrrol-3-yl)-N-(2-methoxypyridin-4-yl)-2-oxoacetamide] |
| 94 nM | COc1cc(NC(=O)C(=O)c2c(C)n(Cc3ccc(Cl)cc3)c3sc(Cl)cc23)ccn1 [Compound I-03, 2-(2-chloro-6-(4-chlorobenzyl)-5-methyl-6H-thieno[2,3-b]pyrrol-4-yl)-N-(2-methoxypyridin-4-yl)-2-oxoacetamide] |
| 18 nM | COc1cc(NC(=O)C(=O)c2c(C)n(Cc3ccc(Cl)cc3)c3ccsc23)ccn1 [Compound I-07, 2-(4-(4-chlorobenzyl)-5-methyl-4H-thieno[3,2-b]pyrrol-6-yl)-N-(2-methoxypyridin-4-yl)-2-oxoacetamide] |
| 3200 nM | Cc1cc(C(=O)C(=O)Nc2cccnc2)c(C)n1Cc1ccc(Cl)cc1 [Compound I-31, 2-(1-(4-chlorobenzyl)-2,5-dimethyl-1H-pyrrol-3-yl)-2-oxo-N-(pyridin-3-yl)acetamide] |
| 3400 nM | Cc1cc(C(=O)C(=O)Nc2ccncc2)c(C)n1Cc1ccc(Cl)cc1 [Compound I-30, 2-(1-(4-chlorobenzyl)-2,5-dimethyl-1H-pyrrol-3-yl)-2-oxo-N-(pyridin-4-yl)acetamide] |
| > 5000 nM | Cc1cc(C(=O)C(=O)Nc2ccccc2)c(C)n1Cc1ccc(Cl)cc1 [Compound I-32, 2-(1-(4-chlorobenzyl)-2,5-dimethyl-1H-pyrrol-3-yl)-2-oxo-N-phenylacetamide] |
| 97 nM | Cc1c(C(=O)C(=O)Nc2ccncc2)c2cc(Cl)sc2n1Cc1ccc(Cl)cc1 [Compound I-02, 2-(2-chloro-6-(4-chlorobenzyl)-5-methyl-6H-thieno[2,3-b]pyrrol-4-yl)-2-oxo-N-(pyridin-4-yl)acetamide] |
| 897 nM | Cc1cc(C(=O)C(=O)Nc2ccnc(Cl)c2)c(C)n1Cc1ccc(Cl)cc1 [Compound I-28, 2-(1-(4-chlorobenzyl)-2,5-dimethyl-1H-pyrrol-3-yl)-N-(2-chloropyridin-4-yl)-2-oxoacetamide] |
| 542 nM | COc1cc(NC(=O)C(=O)c2cc(C)n(Cc3ccc(Cl)cc3)c2C)ccn1 [Compound I-01, 2-(1-(4-chlorobenzyl)-2,5-dimethyl-1H-pyrrol-3-yl)-N-(2-methoxypyridin-4-yl)-2-oxoacetamide] |
| 51 nM | Cc1cc2c(s1)c(C(=O)C(=O)Nc1ccncc1)c(C)n2Cc1ccc(Cl)cc1 [Compound I-04, 2-(4-(4-chlorobenzyl)-2,5-dimethyl-4H-thieno[3,2-b]pyrrol-6-yl)-2-oxo-N-(pyridin-4-yl)acetamide] |
